One series has as its system Candida albicans β311. The series is described as follows: Disk activity against Candida albicans β311. The format is cell-based. An excerpt: (§1) For example, disk activity against Candida albicans β311 for the prodrug was 0.04 minimal inhibitory concentration with 0.01 for the warhead alone.
The next series has as its system E. coli CB64recA/F'123. The series is described as follows: Disc assay for inhibition on seeded agar plates (zones of inhibition after overnight incubation). The format is cell-based, Escherichia coli. More on the design: unit not given here. The conditions noted are these: for Zones of inhibition diameter: section C. The procedure:
The medium was that of Davis and Mingioli, supplemented with 4 μg/ml of thiamine and 50 μg/ml of required amino acid supplements with 1.5% agar for solid media. Seeded agar plates contained 0.1 ml of an overnight culture per 20 ml of molten agar (kept at 49°) containing appropriate supplements.
[…] of test solution was added to 1/4" diameter paper discs and the discs placed on the surface of agar plates which were incubated overnight at 37°. The bacterial strains of E. coli, whose strains are given hereafter, were obtained from the E. coli Genetic Stock Center.
Zones of inhibition on seeded agar plates after overnight incubation.

For the next series, the system named is Fungal. The series is described as follows: Fungal activity in vitro, prodrug compared with non-latentiated warhead. The format is cell-based.
Description: as §1

[1] abbreviates: 200 nmol per disc, overnight incubation.
Setting [2] is: 800 nmol per disc, overnight incubation.
Setting [3] is: 800 nmol per disc, overnight incubation, section B.

Where a SMILES comes first, the peptide text is derived from it. The star is where a group is joined. SPy = c1ccc(S*)nc1

As for `[O-][n+]1ccccc1S` [2-mercaptopyridyl-1-one, reference compound], the “minimal inhibitory concentration (disk activity)” value in the series with Candida albicans β311 worked out at 0.01.
With `C[C@H](N)C(=O)N[C@@H](C)C(=O)N[C@@H](CSSCCNc1cc(C(=O)O)nc(C(=O)O)c1)C(=O)O` [L-Ala--L-Ala--L-Ala--S--MEPDA, L-alanyl-L-alanyl-β-L-alanyl 2-(2,6-dicarboxy-pyridyl-4)-aminoethyl disulfide], the “Zone of inhibition diameter” value in the series on E. coli CB64recA/F'123 (30 nmol, tripeptide alone, section D) is on record as 11; in the series on E. coli CB64recA/F'123 (60 nmol, tripeptide alone, section D), 15. The “Zones of inhibition diameter” value with E. coli CB64recA/F'123 (40 nmol per disc, overnight incubation) amounted to 9; in the series with E. coli CB64recA/F'123 (setting [1]), 16; in the series on E. coli CB64recA/F'123 (setting [2]) it was 24.
Turning to `C[C@H](N)C(=O)N[C@@H](CSSc1ccccn1)C(=O)O` [L-Ala--L-Ala--S--2MP, L-alanyl-β-L-alanyl 2-pyridyl disulfide] (H-Ala-Cys(SPy)-OH), the “Zone of inhibition diameter” value in the series on E. coli CB64recA/F'123 (setting [3]) came out at 15.
In the case of `C[C@H](N)C(=O)N[C@@H](C)C(=O)N[C@@H](CSSc1ccccn1)C(=O)O` [L-ala- L-Ala--L-ala- S--2MP, L-alanyl-L-alanyl-β-L-alanyl 2-pyridyl disulfide] (H-Ala-Ala-Cys(SPy)-OH), the “Zone of inhibition diameter” value is “( )” in the series with E. coli CB64recA/F'123 (40 nmol per disc, overnight incubation, section B); 14 in the series on E. coli CB64recA/F'123 (200 nmol per disc, overnight incubation, section B); 25 in the series on E. coli CB64recA/F'123 (setting [3]).
For the compound `C[C@H](NC(=O)C(N)CCCN)C(=O)N[C@@H](CSSCCNc1cc(C(=O)O)nc(C(=O)O)c1)C(=O)O` (stereo partly drawn) [Orn--L-Ala--L-Ala--S--MEPDA], the “Zones of inhibition diameter” value in the series with E. coli CB64recA/F'123 (setting [1]) stood at 10; in the series with E. coli CB64recA/F'123 (setting [2]), 12.
As to `NCCCC(N)C(=O)NC(CSSCCNc1cc(C(=O)O)nc(C(=O)O)c1)C(=O)O` [Orn--L-Ala--S--MEPDA], the “Zones of inhibition diameter” value in the series on E. coli CB64recA/F'123 (250-500 nmol per disc, overnight incubation) is on record as 13.
Turning to “L-alanyl-β-L-alanyl N-oxy 2-pyridyl disulfide”, the “minimal inhibitory concentration (disk activity)” value in the series on Candida albicans β311 was found to be 0.04. Moreover, the “activity in vitro relative to 2-mercaptopyridyl-1-one in non-latentiated form” value in the series with Fungal was “generally less activity”. Further, in “Potential for irritation”, the “potential for irritation relative to 2-mercaptopyridyl-1-one” value is listed as “lower potential for irritation”.

(Values after patent US4427582A, “Antimicrobial disulfide prodrugs” (SmithKline Beckman Corporation, priority 1982, dated 1984).)
